biological target: T1, MerTK (Homo sapiens, UniProt Q12866); assay: PAKT HTRF-HUVEC assay (pAkt Ser473 HTRF after anti-human MerTK-XL stimulation); assay type: cell-based; conditions: HUVEC cells, 1 hour compound, stimulated with anti-human MerTK-XL 1 ug/mL for 10 minutes, read-out: inhibition of MerTK
T1 construct: Seed HUVECs (10K cells/well) in EBM-2 complete media; host or cells: HUVEC (primary human umbilical vein endothelial cells)
T1 sequence (Q12866 21-999): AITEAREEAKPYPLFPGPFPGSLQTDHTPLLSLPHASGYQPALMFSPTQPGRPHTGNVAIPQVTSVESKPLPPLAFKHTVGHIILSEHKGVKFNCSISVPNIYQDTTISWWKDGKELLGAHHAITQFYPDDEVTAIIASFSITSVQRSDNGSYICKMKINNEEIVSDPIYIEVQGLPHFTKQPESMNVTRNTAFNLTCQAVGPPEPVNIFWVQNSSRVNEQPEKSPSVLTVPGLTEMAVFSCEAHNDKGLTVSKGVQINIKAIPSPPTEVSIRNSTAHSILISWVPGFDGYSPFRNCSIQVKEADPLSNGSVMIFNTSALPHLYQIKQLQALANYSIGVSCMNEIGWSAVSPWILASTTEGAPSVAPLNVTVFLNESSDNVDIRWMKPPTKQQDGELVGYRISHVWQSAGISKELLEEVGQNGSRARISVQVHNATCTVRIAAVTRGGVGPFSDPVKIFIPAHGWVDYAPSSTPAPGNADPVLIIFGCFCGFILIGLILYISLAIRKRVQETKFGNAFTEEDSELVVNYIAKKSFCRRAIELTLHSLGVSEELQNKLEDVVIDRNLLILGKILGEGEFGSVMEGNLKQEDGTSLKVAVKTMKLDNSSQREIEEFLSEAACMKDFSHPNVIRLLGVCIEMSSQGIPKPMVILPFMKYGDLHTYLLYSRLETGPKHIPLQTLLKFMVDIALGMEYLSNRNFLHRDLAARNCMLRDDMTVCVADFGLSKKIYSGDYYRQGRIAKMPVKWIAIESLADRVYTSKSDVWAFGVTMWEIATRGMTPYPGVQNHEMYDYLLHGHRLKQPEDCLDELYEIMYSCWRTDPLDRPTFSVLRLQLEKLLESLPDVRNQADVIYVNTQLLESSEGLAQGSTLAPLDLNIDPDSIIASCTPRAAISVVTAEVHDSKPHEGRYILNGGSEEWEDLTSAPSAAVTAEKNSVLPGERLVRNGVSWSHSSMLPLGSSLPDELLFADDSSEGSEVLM
Outline: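 HUVECs starved 3-4 h in basal medium, preincubated with compound 1 h at 37° C, then stimulated 10 min with cross-linked anti-human MerTK antibody (final 1 ug/mL). Lysates read for pAkt (Ser473) by HTRF; EC50 from curve fitting.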

EC50 | Compound
415 nM | O=c1c2cc(OCCCN3CCOCC3)ccc2c2cnc(NCC3CC3)nc2n1[C@H]1CC[C@H](O)CC1 [Compound 208, trans-3-((Cyclopropylmethyl)amino)-5-(4-hydroxycyclohexyl)-8-(3-morpholinopropoxy)pyrimido[4,5-c]isoquinolin-6(5H)-one]
13.9 nM | O=c1c2cc(CN3CCC4(CC3)COC4)ccc2c2cnc(NC3CCC3)nc2n1[C@H]1CC[C@H](O)CC1 [Compound 209, trans-8-((2-Oxa-7-azaspiro[3.5]nonan-7-yl)methyl)-3-(cyclobutylamino)-5-(4-hydroxycyclohexyl)pyrimido[4,5-c]isoquinolin-6(5H)-one]
85.6 nM | O=c1c2cc(CN3CCC4(CC3)COC4)ccc2c2cnc(NC3CC(F)(F)C3)nc2n1[C@H]1CC[C@H](O)CC1 [Compound 210, trans-8-((2-Oxa-7-azaspiro[3.5]nonan-7-yl)methyl)-3-((3,3-difluorocyclobutyl)amino)-5-(4-hydroxycyclohexyl)pyrimido[4,5-c]isoquinolin-6(5H)-one]
63.6 nM | O=c1c2cc(CN3CCN(c4ccncc4)CC3)ccc2c2cnc(NC3CC(F)(F)C3)nc2n1[C@H]1CC[C@H](O)CC1 [Compound 212, trans-3-((3,3-Difluorocyclobutyl)amino)-5-(4-hydroxycyclohexyl)-8-((4-(pyridin-4-yl)piperazin-1-yl)methyl)pyrimido[4,5-c]isoquinolin-6(5H)-one]
30.4 nM | CCC[C@H](C)Nc1ncc2c3ccc(CN4CCN(C)CC4)cc3c(=O)n([C@H]3CC[C@H](O)CC3)c2n1 [Compound 213, trans-5-(4-hydroxycyclohexyl)-8-((4-methylpiperazin-1-yl)methyl)-3-(((S)-pentan-2-yl)amino)pyrimido[4,5-c]isoquinolin-6(5H)-one]
10.5 nM | CCC[C@H](C)Nc1ncc2c3ccc(CN4CCC5(CC4)COC5)cc3c(=O)n([C@H]3CC[C@H](O)CC3)c2n1 [Compound 214, trans-8-((2-oxa-7-azaspiro[3.5]nonan-7-yl)methyl)-5-(4-hydroxycyclohexyl)-3-(((5)-pentan-2-yl)amino)pyrimido[4,5-c]isoquinolin-6(5H)-one]
3.7 nM | CCC[C@H](C)Nc1ncc2c3ccc(CN4CCN(C(C)(C)C)CC4)cc3c(=O)n([C@H]3CC[C@H](O)CC3)c2n1 [Compound 215]
22.5 nM | O=c1c2cc(CN3CCN(c4ccncn4)CC3)ccc2c2cnc(NCC3CC3)nc2n1[C@H]1CC[C@H](O)CC1 [Compound 216, trans-3-((Cyclopropylmethyl)amino)-5-(4-hydroxycyclohexyl)-8-((4-(pyrimidin-4-yl)piperazin-1-yl)methyl)pyrimido[4,5-c]isoquinolin-6(5H)-one]
4.1 nM | O=c1c2cc(CN3CCC(c4ccncc4)CC3)ccc2c2cnc(NCC3CC3)nc2n1[C@H]1CC[C@H](O)CC1 [Compound 217, trans-3-((Cyclopropylmethyl)amino)-5-(4-hydroxycyclohexyl)-8-((4-(pyridin-4-yl)piperidin-1-yl)methyl)pyrimido[4,5-c]isoquinolin-6(5H)-one]
24.2 nM | O=c1c2cc(CC3CCN(c4ccncc4)CC3)ccc2c2cnc(NCC3CC3)nc2n1[C@H]1CC[C@H](O)CC1 [Compound 218, trans-3-((Cyclopropylmethyl)amino)-5-(4-hydroxycyclohexyl)-8-((1-(pyridin-4-yl)piperidin-4-yl)methyl)pyrimido[4,5-c]isoquinolin-6(5H)-one]
18.3 nM | CCC[C@H](C)Nc1ncc2c3ccc(CN4CCN(c5ccncc5)CC4)cc3c(=O)n([C@H]3CC[C@H](O)CC3)c2n1 [Compound 219, trans-5-(4-Hydroxycyclohexyl)-3-(((S)-pentan-2-yl)amino)-8-((4-(pyridin-4-yl)piperazin-1-yl)methyl)pyrimido[4,5-c]isoquinolin-6(5H)-one]
11.2 nM | O=c1c2cc(CN3CCN(c4ccncc4)CC3)ccc2c2cnc(NCC3CCC3)nc2n1[C@H]1CC[C@H](O)CC1 [Compound 220, trans-3-((Cyclobutylmethyl)amino)-5-(4-hydroxycyclohexyl)-8-((4-(pyridin-4-yl)piperazin-1-yl)methyl)pyrimido[4,5-c]isoquinolin-6(5H)-one]
86.1 nM | CCC(F)(F)CNc1ncc2c3ccc(CN4CCN(c5ccncc5)CC4)cc3c(=O)n([C@H]3CC[C@H](O)CC3)c2n1 [Compound 221, trans-3-((2,2-Difluorobutyl)amino)-5-(4-hydroxycyclohexyl)-8-((4-(pyridin-4-yl)piperazin-1-yl)methyl)pyrimido[4,5-c]isoquinolin-6(5H)-one]
14.5 nM | O=c1c2cc(CN3CCN(c4ccncc4)CC3)ccc2c2cnc(NCCC3CC3)nc2n1[C@H]1CC[C@H](O)CC1 [Compound 222, trans-3-((2-Cyclopropylethyl)amino)-5-(4-hydroxycyclohexyl)-8-((4-(pyridin-4-yl)piperazin-1-yl)methyl)pyrimido[4,5-c]isoquinolin-6(5H)-one]
14.3 nM | CC(C)CCNc1ncc2c3ccc(CN4CCN(c5ccncc5)CC4)cc3c(=O)n([C@H]3CC[C@H](O)CC3)c2n1 [Compound 223, trans-5-(4-Hydroxycyclohexyl)-3-(isopentylamino)-8-((4-(pyridin-4-yl)piperazin-1-yl)methyl)pyrimido[4,5-c]isoquinolin-6(5H)-one]
28.3 nM | C[C@]1(O)CC[C@H](n2c(=O)c3cc(CN4CCN(c5ccncc5)CC4)ccc3c3cnc(NCC4CC4)nc32)CC1 [Compound 224, trans-3-((Cyclopropylmethyl)amino)-5-(4-hydroxy-4-methylcyclohexyl)-8-((4-(pyridin-4-yl)piperazin-1-yl)methyl)pyrimido[4,5-c]isoquinolin-6(5H)-one]
21 nM | O=c1c2cc(CN3CCN(c4ccncc4)CC3)ccc2c2cnc(NC3CCC3)nc2n1[C@H]1CC[C@H](O)CC1 [Compound 225, trans-3-(Cyclobutylamino)-5-(4-hydroxycyclohexyl)-8-((4-(pyridin-4-yl)piperazin-1-yl)methyl)pyrimido[4,5-c]isoquinolin-6(5H)-one]
10.9 nM | O=c1c2cc(CN3CCN(c4ccncn4)CC3)ccc2c2cnc(NC3CCC3)nc2n1[C@H]1CC[C@H](O)CC1 [Compound 226, trans-3-(Cyclobutylamino)-5-(4-hydroxycyclohexyl)-8-((4-(pyrimidin-4-yl)piperazin-1-yl)methyl)pyrimido[4,5-c]isoquinolin-6(5H)-one]
2.4 nM | O=c1c2cc(CN3CCC(c4ccncc4)CC3)ccc2c2cnc(NC3CCC3)nc2n1[C@H]1CC[C@H](O)CC1 [Compound 227, trans-3-(Cyclobutylamino)-5-(4-hydroxycyclohexyl)-8-((4-(pyridin-4-yl)piperidin-1-yl)methyl)pyrimido[4,5-c]isoquinolin-6(5H)-one]
26.6 nM | O=c1c2cc(CN3CCC(O)(c4ccncc4)CC3)ccc2c2cnc(NCC3CC3)nc2n1[C@H]1CC[C@H](O)CC1 [Compound 228, trans-3-((Cyclopropylmethyl)amino)-8-((4-hydroxy-4-(pyridin-4-yl)piperidin-1-yl)methyl)-5-(4-hydroxycyclohexyl)pyrimido[4,5-c]isoquinolin-6(5H)-one]
72 nM | CCCCNc1ncc2c3ccc(CN4CCN(C)CC4)cc3c(=O)n([C@H]3CCC[C@H](O)CC3)c2n1 [Compound 229, 3-(butylamino)-5-((1S,4S)-4-hydroxycycloheptyl)-8-((4-methylpiperazin-1-yl)methyl)pyrimido[4,5-c]isoquinolin-6(5H)-one]
140 nM | CN1CCN(Cc2ccc3c(c2)c(=O)n([C@H]2CCC[C@H](O)CC2)c2nc(NCC4CC4)ncc32)CC1 [Compound 230, 3-((cyclopropylmethyl)amino)-5-((1S,4S)-4-hydroxycycloheptyl)-8-((4-methylpiperazin-1-yl)methyl)pyrimido[4,5-c]isoquinolin-6(5H)-one]
1910 nM | CCCCNc1ncc2c3ccc(CN4CCN(C)CC4)cc3c(=O)n([C@H]3CC[C@H](NC(=O)OC(C)(C)C)C3)c2n1 [Compound 231, tert-butyl ((1S,3S)-3-(3-(butylamino)-8-((4-methylpiperazin-1-yl)methyl)-6-oxopyrimido[4,5-c]isoquinolin-5(6H)-yl)cyclopentyl)carbamate]
43 nM | CCCCNc1ncc2c3ccc(CN4CCN(C)CC4)cc3c(=O)n([C@H]3CC[C@H](N)C3)c2n1 [Compound 232, 5-((1S,3S)-3-aminocyclopentyl)-3-(butylamino)-8-((4-methylpiperazin-1-yl)methyl)pyrimido[4,5-c]isoquinolin-6(5H)-one]

From patent US11110082B2, “Tyrosine kinase inhibitors” (Rigel Pharmaceuticals, Inc., priority 2016, dated 2021)
